Target: T1, human adenosine A2A receptor (Homo sapiens, UniProt P29274)
T1 construct: expressed in transfected cells; host or cells: HEK293 cells infected with BacMam
Test: Inhibition binding assay, human adenosine A2A receptor membranes, [3H]ZM241385
Details: 1 nM [3H]ZM241385, HEK293-hA2A membranes, 25° C., 1 h; IC50 converted to Ki with Cheng-Prusoff; read-out: A2A pKi (converted)
Protocol: Inhibition binding assays were performed using 0.2 μg of membranes prepared from HEK293 cells infected with BacMam human adenosine A2A receptor or 1.4 μg of membranes prepared from HEK293 cells infected with BacMam human adenosine A1 receptor. Membranes were incubated in 50 mM Tris-HCl (HEK293-hA2A; pH 7.4) or 50 mM Tris-HCl, 100 mM NaCl, 10 mM MgCl2 (CHO-hA1; pH 7.4) in the presence of varying concentrations of test compound and 1 nM [^3H]ZM241385 (HEK293-hA2A) or [^3H]DPCPX (CHO-hA1) at 25° C. for 1 h. The assay was then terminated by rapid filtration onto GF/B grade Unifilter plates using a TomTec cell harvester, followed by 5×0.5 ml washes with ddH2O. Nonspecific binding was defined in the presence of 1 μM CGS15943 (HEK293-hA2A) or 1 μM DPCPX (CHO-hA1). Bound radioactivity was determined by liquid scintillation counting and inhibition curves were analysed using a four-parameter logistic equation. IC50 values were converted to Ki values with the Cheng-Prusoff equation using a KD value derived from saturation binding studies.

T1 sequence (P29274 whole entry): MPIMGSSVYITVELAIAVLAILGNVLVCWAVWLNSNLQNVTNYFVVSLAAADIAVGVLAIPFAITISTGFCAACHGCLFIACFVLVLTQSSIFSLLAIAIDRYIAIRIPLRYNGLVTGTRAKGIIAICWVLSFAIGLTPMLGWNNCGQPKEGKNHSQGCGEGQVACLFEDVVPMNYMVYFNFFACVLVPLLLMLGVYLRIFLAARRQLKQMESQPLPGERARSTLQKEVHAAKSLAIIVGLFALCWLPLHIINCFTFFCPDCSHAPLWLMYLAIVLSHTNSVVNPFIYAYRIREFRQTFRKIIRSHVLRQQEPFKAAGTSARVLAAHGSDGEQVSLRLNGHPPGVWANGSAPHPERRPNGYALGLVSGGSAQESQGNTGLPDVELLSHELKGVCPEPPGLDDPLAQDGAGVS

Row | SMILES | Ki [µM]
1 | Cc1cnn(-c2nc(N)n3c(=O)n(CCC(F)(F)F)nc3c2-c2cc(C)nc(C)c2)c1 [Example 2-41, 5-amino-8-(2,6-dimethyl-4-pyridyl)-7-(4-methylpyrazol-1-yl)-2-(3,3,3-trifluoropropyl)-[1,2,4]triazolo[4,3-c]pyrimidin-3-one] | 0.0316
2 | Cc1cc(-c2c(-c3ccccc3)nc(N)n3c(=O)n(C[C@@H]4CNCCO4)nc23)cc(C)n1 [Example 2-71, (S)-5-amino-8-(2,6-dimethylpyridin-4-yl)-2-(morpholin-2-ylmethyl)-7-phenyl-[1,2,4]triazolo[4,3-c]pyrimidin-3(2H)-one] | 0.0316
3 | Cc1cc(-c2c(-c3ccccc3)nc(N)n3c(=O)n(CCN4CCCC(C)C4)nc23)cc(C)n1 (stereo not shown) [Example 2-98, 5-amino-8-(2,6-dimethyl-4-pyridyl)-2-[2-(3-methyl-1-piperidyl)ethyl]-7-phenyl-[1,2,4]triazolo[4,3-c]pyrimidin-3-one] | 0.02
4 | COC(=O)N1CCCC(NCCn2nc3c(-c4cc(C)nc(C)c4)c(-c4ccccc4)nc(N)n3c2=O)C1 (stereo not shown) [Example 2-106, methyl 3-[2-[5-amino-8-(2,6-dimethyl-4-pyridyl)-3-oxo-7-phenyl-[1,2,4]triazolo[4,3-c]pyrimidin-2-yl]ethylamino]piperidine-1-carboxylate] | 0.1
5 | Cc1cc(-c2c(-c3ccccc3)nc(N)n3c(=O)n(C[C@@H]4CNCCN4C)nc23)cc(C)n1 [Example 2-88, 5-amino-8-(2,6-dimethyl-4-pyridyl)-2-[[(2S)-1-methylpiperazin-2-yl]methyl]-7-phenyl-[1,2,4]triazolo[4,3-c]pyrimidin-3-one] | 0.0794
6 | Cc1cc(-c2c(-c3ccccc3)nc(N)n3c(=O)n(C[C@H]4COCCN4C(=O)OC(C)(C)C)nc23)cc(C)n1 [Example 2-75, tert-butyl (3S)-3-[[5-amino-8-(2,6-dimethyl-4-pyridyl)-3-oxo-7-phenyl-[1,2,4]triazolo[4,3-c]pyrimidin-2-yl]methyl]morpholine-4-carboxylate] | 0.1
7 | COc1cc(-c2c(-c3ccc(F)cc3)nc(N)n3c(=O)n(Cc4ccc(C)cn4)nc23)cc(CO)n1 [Example 1-67, 5-amino-7-(4-fluorophenyl)-8-[2-(hydroxymethyl)-6-methoxy-4-pyridyl]-2-[(5-methyl-2-pyridyl)methyl]-[1,2,4]triazolo[4,3-c]pyrimidin-3-one] | 0.000794
8 | Cc1cc(-c2c(-c3ccccc3)nc(N)n3c(=O)n(C(C)C)nc23)cc(C)n1 [Example 2-4, 5-amino-8-(2,6-dimethyl-4-pyridyl)-2-isopropyl-7-phenyl-[1,2,4]triazolo[4,3-c]pyrimidin-3-one] | 0.0501
9 | Cc1cc(-c2c(-c3ccccc3)nc(N)n3c(=O)n(Cc4ccc(C#N)cn4)nc23)cc(CO)n1 [Example 1-54, 6-[[5-amino-8-[2-(hydroxymethyl)-6-methyl-4-pyridyl]-3-oxo-7-phenyl-[1,2,4]triazolo[4,3-c]pyrimidin-2-yl]methyl]pyridine-3-carbonitrile] | 0.158
10 | Cc1cc(-c2c(-c3ccccc3)nc(N)n3c(=O)n(C[C@H]4CN(C)CCO4)nc23)cc(C)n1 [Example 2-74, 5-amino-8-(2,6-dimethyl-4-pyridyl)-2-[[(2R)-4-methylmorpholin-2-yl]methyl]-7-phenyl-[1,2,4]triazolo[4,3-c]pyrimidin-3-one] | 0.0158
11 | Cc1cc(-c2c(-c3ccccc3)nc(N)n3c(=O)n(CCN4CCCCC4)nc23)cc(C)n1 [Example 2-96, 5-amino-8-(2,6-dimethyl-4-pyridyl)-7-phenyl-2-[2-(1-piperidyl)ethyl]-[1,2,4]triazolo[4,3-c]pyrimidin-3-one] | 0.0158
12 | Cc1cc(-c2c(-c3ccccc3)nc(N)n3c(=O)n(C[C@H]4CN(C)CCN4C)nc23)cc(C)n1 [Example 2-85, (R)-5-amino-2-((1,4-dimethylpiperazin-2-yl)methyl)-8-(2,6-dimethylpyridin-4-yl)-7-phenyl-[1,2,4]triazolo[4,3-c]pyrimidin-3(2H)-one] | 0.00794
13 | CCNC(=O)OCCn1nc2c(-c3cc(C)nc(C)c3)c(-c3ccccc3)nc(N)n2c1=O [Example 2-16, 2-[5-amino-8-(2,6-dimethyl-4-pyridyl)-3-oxo-7-phenyl-[1,2,4]triazolo[4,3-c]pyrimidin-2-yl]ethyl N-ethylcarbamate] | 0.02
14 | Cc1cc(-c2c(-c3ccccc3)nc(N)n3c(=O)n(CCN4CCC5CC54)nc23)cc(C)n1 (stereo not shown) [Example 2-95, 2-(2-(2-azabicyclo[3.1.0]hexan-2-yl)ethyl)-5-amino-8-(2,6-dimethylpyridin-4-yl)-7-phenyl-[1,2,4]triazolo[4,3-c]pyrimidin-3(2H)-one] | 0.00631
15 | Cc1cc(-c2c(-c3ccc(F)cc3)nc(N)n3c(=O)n(CC4CCCN=N4)nc23)cc(CO)n1 (stereo not shown) [Example 2-93, 5-amino-7-(4-fluorophenyl)-8-[2-(hydroxymethyl)-6-methyl-4-pyridyl]-2-(3,4,5,6-tetrahydropyridazin-3-ylmethyl)-[1,2,4]triazolo[4,3-c]pyrimidin-3-one] | 0.0316
16 | Cc1cc(-c2c(-c3ccccc3)nc(N)n3c(=O)n(CCN(C)C4(CO)CCc5ccccc5C4)nc23)cc(C)n1 (stereo not shown) [Example 1-99, 5-amino-8-(2,6-dimethyl-4-pyridyl)-2-[2-[[2-(hydroxymethyl)tetralin-2-yl]-methyl-amino]ethyl]-7-phenyl-[1,2,4]triazolo[4,3-c]pyrimidin-3-one] | 0.0398
17 | Cc1cc(-c2c(-c3ccc(F)cc3)nc(N)n3c(=O)n(Cc4ccc(F)cn4)nc23)cc(CO)n1 [Example 1-59, 5-amino-7-(4-fluorophenyl)-2-[(5-fluoro-2-pyridyl)methyl]-8-[2-(hydroxymethyl)-6-methyl-4-pyridyl]-[1,2,4]triazolo[4,3-c]pyrimidin-3-one] | 0.00158
18 | Cc1cc(-c2c(-c3ccccc3)nc(N)n3c(=O)n(C[C@@H]4CN(C)CCN4C)nc23)cc(C)n1 [Example 2-87, (S)-5-amino-2-((1,4-dimethylpiperazin-2-yl)methyl)-8-(2,6-dimethylpyridin-4-yl)-7-phenyl-[1,2,4]triazolo[4,3-c]pyrimidin-3(2H)-one] | 0.1
19 | Cc1cc(-c2c(-c3ccccc3)nc(N)n3c(=O)n(CCC4CCN(CCC(=O)O)CC4)nc23)cc(C)n1 [Example 2-110, 3-[4-[2-[5-amino-8-(2,6-dimethyl-4-pyridyl)-3-oxo-7-phenyl-[1,2,4]triazolo[4,3-c]pyrimidin-2-yl]ethyl]-1-piperidyl]propanoic acid] | 0.126
20 | CNC(=O)CCn1nc2c(-c3cc(C)nc(C)c3)c(-c3ccccc3)nc(N)n2c1=O [Example 2-113, 3-(5-amino-8-(2,6-dimethylpyridin-4-yl)-3-oxo-7-phenyl-[1,2,4]triazolo[4,3-c]pyrimidin-2(3H)-yl)-N-methylpropanamide] | 0.0251
21 | Cc1cc(-c2c(-c3ccco3)nc(N)n3c(=O)n(CCC(F)(F)F)nc23)cc(C)n1 [Example 2-42, 5-amino-8-(2,6-dimethyl-4-pyridyl)-7-(2-furyl)-2-(3,3,3-trifluoropropyl)-[1,2,4]triazolo[4,3-c]pyrimidin-3-one] | 0.001
22 | Cc1cc(-c2c(-c3ccccc3)nc(N)n3c(=O)n(CCC(N)=O)nc23)cc(C)n1 [Example 2-31, 3-[5-amino-8-(2,6-dimethyl-4-pyridyl)-3-oxo-7-phenyl-[1,2,4]triazolo[4,3-c]pyrimidin-2-yl]propanamide] | 0.0251
